pIC50: −log10 of the molar value. Values after ≈ are worked out from the molar mass of the structure shown.
What was measured:
Assay type in all cases: cell-based
Acinetobacter baumannii = assay: MIC90 determination, clinical strains (CLSI); details: Acinetobacter baumannii, N=38, read-out: MIC 90 Acinetobacter baumannii
hERG potassium channel = hERG potassium channel (Homo sapiens (Human), UniProt Q12809); assay: hERG inhibition assay (Qpatch HTX automated electrophysiology); details: CHO cell line expressing hERG, whole-cell patch clamp
Chain of hERG potassium channel (Q12809 whole entry): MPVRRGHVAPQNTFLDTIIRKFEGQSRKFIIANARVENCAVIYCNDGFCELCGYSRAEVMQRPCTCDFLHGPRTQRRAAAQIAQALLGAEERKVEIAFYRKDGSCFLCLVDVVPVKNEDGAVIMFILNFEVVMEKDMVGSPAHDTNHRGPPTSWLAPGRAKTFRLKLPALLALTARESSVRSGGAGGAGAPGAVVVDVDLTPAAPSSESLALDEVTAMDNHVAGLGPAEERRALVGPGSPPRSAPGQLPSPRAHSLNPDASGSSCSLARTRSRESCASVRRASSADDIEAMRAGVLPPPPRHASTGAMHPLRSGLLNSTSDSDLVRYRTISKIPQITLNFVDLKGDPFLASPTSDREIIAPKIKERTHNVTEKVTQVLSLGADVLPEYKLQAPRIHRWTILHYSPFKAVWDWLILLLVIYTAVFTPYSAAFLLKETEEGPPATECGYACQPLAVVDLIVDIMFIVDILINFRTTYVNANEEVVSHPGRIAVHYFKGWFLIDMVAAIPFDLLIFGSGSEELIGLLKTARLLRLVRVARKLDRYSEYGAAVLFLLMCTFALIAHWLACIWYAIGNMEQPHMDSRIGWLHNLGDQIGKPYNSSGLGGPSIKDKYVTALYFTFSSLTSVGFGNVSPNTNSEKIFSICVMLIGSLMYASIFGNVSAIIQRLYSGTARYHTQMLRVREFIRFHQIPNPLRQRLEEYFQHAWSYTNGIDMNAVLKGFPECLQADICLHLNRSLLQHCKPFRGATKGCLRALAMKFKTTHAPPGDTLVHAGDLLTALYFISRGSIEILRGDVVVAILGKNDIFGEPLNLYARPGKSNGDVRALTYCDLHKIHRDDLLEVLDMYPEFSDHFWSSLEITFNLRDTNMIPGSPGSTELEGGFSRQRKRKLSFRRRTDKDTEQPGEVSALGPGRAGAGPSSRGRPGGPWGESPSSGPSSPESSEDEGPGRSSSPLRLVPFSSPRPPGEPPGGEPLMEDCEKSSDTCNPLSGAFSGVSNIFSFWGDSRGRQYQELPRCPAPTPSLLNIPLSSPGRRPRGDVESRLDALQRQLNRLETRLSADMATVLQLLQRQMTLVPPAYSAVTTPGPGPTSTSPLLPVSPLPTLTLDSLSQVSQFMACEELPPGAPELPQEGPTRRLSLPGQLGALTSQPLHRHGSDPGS
Method: Electrophysiological recordings were made from a Chinese Hamster Ovary cell line stably expressing the full-length hERG potassium channel. Single cell ionic currents were measured in whole-cell patch clamp configuration at room temperature (21-23° C.) using the Qpatch HTX platform (Sophion). Intracellular solution contained (mM): 120 KF, 20 KCl, 10 EGTA, 10 HEPES and was buffered to pH 7.3. […] Cells were clamped at a holding potential of −80 mV. Cells were stepped to +20 mV for 2 s then −40 mV for 3 s before returning to the holding potential. […] Compounds were then incubated for 2 minutes prior to a second measurement of ion channel current using an identical pulse train.

Pseudomonas aeruginosa = assay: MIC90 determination, clinical strains (CLSI); details: Pseudomonas aeruginosa, N=34, read-out: MIC 90 Pseudomonas aeruginosa
[1] = tested on: Klebsiella aerogenes, K. oxytoca; assay: MIC90 determination, clinical strains (CLSI); details: N=17, read-out: MIC 90 Klebsiella aerogenes, K. oxytoca
Proteus mirabilis = assay: MIC90 determination, clinical strains (CLSI); details: Proteus mirabilis, N=12, read-out: MIC 90 Proteus mirabilis
[2] = tested on: Klebsiella pneumoniae ATCC 13883; assay: Minimum Inhibitory Concentration (MIC) in LB media; details: Klebsiella pneumoniae, ATCC13883, read-out: Minimum Inhibitory Concentration K. pneumoniae ATCC 13883
From the text: (§1) The compounds of Formula Ia and Formula Ib are of interest due to their potent antibacterial effects. The ability of the compounds disclosed herein to achieve an antibacterial effect may be evaluated with regard to their ability to inhibit the growth of bacterial species like Escherichia coli ATCC 25922, Staphylococcus aureus ATCC 29213, Klebsiella pneumoniae ATCC 13883, Acinetobacter baumannii ATCC 19606, Pseudomonas aeruginosa ATCC 27853 and Enterococcus faecalis ATCC 29212 using an assay based on the following Minimum Inhibitory Concentration (MIC) protocol:
(§2) The test bacteria were grown in Luria Bertani Broth (HIMEDIA M1245), 25 g of the powder was dissolved in 1000 ml distilled water and sterilized by autoclaving at 15 lbs pressure (121° C.) for 20 minutes. The medium sterility was checked by incubating at 37° C. for a period of 48 h. Bacterial cultures that were stored as glycerol stocks at −80° C. were subcultured on LB agar plates to obtain isolated colonies. A single colony of each strain was cultured in LB broth. The cultures were incubated at 37° C., 200 rpm till they reached an optical density (OD at 600 nm) of 0.8 to 1. This log phase culture was diluted in LB broth to a cell number of 5-8*10^5 CFU/mL to be used as inoculum for MIC experiments. Test compounds were dissolved in dimethyl sulfoxide (DMSO) to a stock concentration of 4 mg/ml. A two-fold dilution series of this DMSO stock was prepared in a 96 well V bottom microtitre plate from rows A to H. A 3 μL volume of these dilutions are transferred to a 96-well flat bottom microtitre assay plate. Controls to monitor the effects of DMSO and media sterility were included. Each well was inoculated with 150 μL of the above diluted culture. The plates were incubated at 37° C. overnight in a humidified incubator. The following morning, the plates were read using a Spectrophotometer at 600 nm wavelength. […] The antibacterial activity (MIC) determined against representative gram-positive (S. aureus, E. faecalis) and gram-negative (E. coli, Aeruginosa, K. pneumoniae, and A. baumannii) pathogen are reported Table 1.

[3] = tested on: Enterococcus faecalis ATCC 29212; assay: Minimum Inhibitory Concentration (MIC) in LB media; details: Enterococcus faecalis, ATCC29212, read-out: Minimum Inhibitory Concentration E. faecalis ATCC 29212
From the text: as §1, §2

[4] = tested on: Staphylococcus aureus ATCC 29213; assay: Minimum Inhibitory Concentration (MIC) in LB media; details: Staphylococcus aureus, ATCC29213, read-out: Minimum Inhibitory Concentration S. aureus ATCC 29213
From the text: as §1, §2

[5] = tested on: Pseudomonas aeruginosa ATCC 27853; assay: Minimum Inhibitory Concentration (MIC) in LB media; details: Pseudomonas aeruginosa, ATCC27853
From the text: as §1, §2

[6] = tested on: Escherichia coli ATCC 25922; assay: Minimum Inhibitory Concentration (MIC) in LB media; details: Escherichia coli, ATCC25922, read-out: Minimum Inhibitory Concentration E. coli ATCC 25922
From the text: as §1, §2

[7] = tested on: Acinetobacter baumannii ATCC 19606; assay: Minimum Inhibitory Concentration (MIC) in LB media; details: Acinetobacter baumannii, ATCC19606
From the text: as §1, §2

Enterobacter cloacae = assay: MIC90 determination, clinical strains (CLSI); details: Enterobacter cloacae, N=26, read-out: MIC 90 Enterobacter cloacae
Klebsiella pneumoniae = assay: MIC90 determination, clinical strains (CLSI); details: Klebsiella pneumoniae, N=86, read-out: MIC 90 Klebsiella pneumoniae
CHO-K1 cells = assay: In-vitro micronucleus assay
Method: Genetic toxicology studies were performed on the compounds of the present disclosure to assess their ability to cause DNA damage. The in-vitro micronucleus assay measured the concentration (μM) of the compound at which micronuclei formation occurred. A micronuclei formation at lower concentration indicates more genetic damage or genotoxicity.
Micronucleus formation is a hallmark of genotoxicity, and the micronucleus assay is an important component of genotoxicity screening. Micronuclei are chromatin-containing bodies that represent fragments or even whole chromosomes that were not incorporated into a daughter cell nucleus at mitosis. The purpose of the assay is to detect agents that induce chromosome damage leading to the induction of micronuclei in interphase cells. The in vitro micronucleus assay was conducted in CHO-K1 cells according to the procedure described by Diaz, D et al [Mutat Res. 630(1-2):1-13. […] The formation of the micronucleus is identified by image-based high content analysis from binucleated cells.

Citrobacter freundii = assay: MIC90 determination, clinical strains (CLSI); details: Citrobacter freundii, N=19, read-out: MIC 90 Citrobacter freundii
[8] = tested on: Providencia rettgeri, P. stuartii; assay: MIC90 determination, clinical strains (CLSI); details: N=12, read-out: MIC 90 Providencia rettgeri, P. stuartii
Serratia marcescens = assay: MIC90 determination, clinical strains (CLSI); details: Serratia marcescens, N=15, read-out: MIC 90 Serratia marcescens
Escherichia coli = assay: MIC90 determination, clinical strains (CLSI); details: Escherichia coli, N=38, read-out: MIC 90 Escherichia coli
Morganella morganii = assay: MIC90 determination, clinical strains (CLSI); details: Morganella morganii, N=11, read-out: MIC 90 Morganella morganii

MIC90 (Acinetobacter baumannii) [µg/mL]	MIC90 (Pseudomonas aeruginosa) [µg/mL]	MIC90 [1] [µg/mL]	MIC90 (Proteus mirabilis) [µg/mL]	MIC [2] [µg/mL]	MIC [3] [µg/mL]	MIC [4] [µg/mL]	MIC [5] [µg/mL]	MIC [6] [µg/mL]	MIC [7] [µg/mL]	MIC90 (Enterobacter cloacae) [µg/mL]	MIC90 (Klebsiella pneumoniae) [µg/mL]	MIC90 (Citrobacter freundii) [µg/mL]	MIC90 [8] [µg/mL]	MIC90 (Serratia marcescens) [µg/mL]	MIC90 (Escherichia coli) [µg/mL]	MIC90 (Morganella morganii) [µg/mL]	Compound	% (in-vitro micronucleus assay) (CHO-K1 cells; Chinese hamster) [%]	further results
1 (≈ 2.06 µM)	4 (≈ 8.26 µM)	4 (≈ 8.26 µM)	4 (≈ 8.26 µM)	0.06 (≈ 0.124 µM)	0.06 (≈ 0.124 µM)	0.015 (≈ 0.031 µM)	0.5 (≈ 1.03 µM)	0.06 (≈ 0.124 µM)	0.03 (≈ 0.0619 µM)	8 (≈ 16.5 µM)	8 (≈ 16.5 µM)	2 (≈ 4.13 µM)	2 (≈ 4.13 µM)	16 (≈ 33 µM)	0.5 (≈ 1.03 µM)	2 (≈ 4.13 µM)	Cn1c(=O)ccc2ncc(OCCNC[C@@H]3CN(c4cnc5c(n4)NC(=O)CS5)C(=O)O3)nc21 [Compound 4, (R)-5-(((2-((5-methyl-6-oxo-5,6-dihydropyrido[2,3-b]pyrazin-3-yl)oxy)ethyl)amino)methyl)-3-(3-oxo-3,4-dihydro-2H-pyrazino[2,3-b][1,4]thiazin-6-yl)oxazolidin-2-one]	0.76	pIC50 (hERG potassium channel): < 3.52
0.5 (≈ 1.03 µM)	4 (≈ 8.26 µM)	4 (≈ 8.26 µM)	4 (≈ 8.26 µM)	0.03 (≈ 0.0619 µM)	0.03 (≈ 0.0619 µM)	< 0.015	0.5 (≈ 1.03 µM)	0.03 (≈ 0.0619 µM)	0.03 (≈ 0.0619 µM)	8 (≈ 16.5 µM)	4 (≈ 8.26 µM)	1 (≈ 2.06 µM)	2 (≈ 4.13 µM)	4 (≈ 8.26 µM)	0.5 (≈ 1.03 µM)	1 (≈ 2.06 µM)	Cn1c(=O)cnc2ccc(OCCNC[C@@H]3CN(c4cnc5c(n4)NC(=O)CS5)C(=O)O3)nc21 [Compound 3, (R)-5-(((2-((4-methyl-3-oxo-3,4-dihydropyrido[2,3-b]pyrazin-6-yl)oxy)ethyl)amino)methyl)-3-(3-oxo-3,4-dihydro-2H-pyrazino[2,3-b][1,4]thiazin-6-yl)oxazolidin-2-one]	0.81	genotoxicity risk (in words) (CHO-K1 cells): completely devoid of any genotoxicity risk; micronucleus formation (in words) (CHO-K1 cells): did not induce micronucleus formation; In vitro micronucleus forming concentration (CHO-K1 cells; Chinese hamster): >500 µM

From patent US20250136618A1, “ANTIBIOTIC PYRAZINOTHIAZINE DERIVATIVES AND PROCESS OF PREPARATION THEREOF” (Bugworks Research India PVT Ltd, priority 2021, published 2025)
